Test results from patent US20260263334A1, “COMPOSITIONS CONTAINING NITRATE-RICH FOODS AND EXTRACTS FOR SHIFTING THE ORAL MICROBIOME” (WM. WRIGLEY JR. COMPANY, priority 2023, published 2026).

Tested on: Aggregatibacter actinomycetemcomitans (A.a.)
Assay: short-term time-kill against A.a. (viable colony on agar)
Format: cell-based
Set-up: key to viable colony: +: viable colony; −: no viable colony
Details: for viable colony: stop reagent
Procedure: Fresh grown cells were harvested and adjusted to OD550 nm=0.5, then mixed with CHX (75-1,000 μg/ml). At different time points, an aliquot of cells was removed and mixed with (or without) stop reagent (0.5% Tween 80 and 0.07% Lecithin) to stop the CHX reaction on cells. The treated cells were centrifuged to remove the supernatant that contained CHX, and the cell pellet was spotted on BHI agar (supplemented with 0.001% Hemin, 0.0001% Vitamin K) for cell viability. Fresh grown cells were harvested and mixed with MBE for a short period of time and the viability of treated cells were evaluated. 10% DMSO was used to wash the treated cells and the MBE was removed from the assay system. Immediately after treatment, 10% DMSO was added to the cell mixture. The cell mixture was then centrifuged and washed once more with 10% DMSO. Cells treated with MBE for various times were spotted on an agar plate, […] and noted for viable colony development.

SMILES: [H]/N=C(\N/C(=N/[H])NCCCCCCNC(=N)NC(=N)Nc1ccc(Cl)cc1)Nc1ccc(Cl)cc1 [CHX, chlorhexidine]
- viable colony (CHX 75 μg/ml, treatment time 0 min): +
- viable colony (CHX 75 μg/ml, treatment time 5 min): +
- viable colony (CHX 75 μg/ml, treatment time 30 min): +
- viable colony (CHX 75 μg/ml, treatment time 60 min): +
- viable colony (CHX 100 μg/ml, treatment time 0 min): +
- viable colony (CHX 100 μg/ml, treatment time 1 min): +
- viable colony (CHX 100 μg/ml, treatment time 3 min): +
- viable colony (CHX 100 μg/ml, treatment time 5 min): +
- viable colony (CHX 100 μg/ml, treatment time 10 min): +
- viable colony (CHX 100 μg/ml, treatment time 30 min): +
- viable colony (CHX 100 μg/ml, treatment time 60 min): −
- viable colony (CHX 200 μg/ml, treatment time 0 min): +
- viable colony (CHX 200 μg/ml, treatment time 1 min): +
- viable colony (CHX 200 μg/ml, treatment time 2 min): +
- viable colony (CHX 200 μg/ml, treatment time 3 min): +
- viable colony (CHX 200 μg/ml, treatment time 5 min): +
- viable colony (CHX 200 μg/ml, treatment time 10 min): +
- viable colony (CHX 200 μg/ml, treatment time 30 min): −
- viable colony (CHX 200 μg/ml, treatment time 60 min): −
- viable colony (CHX 300 μg/ml, treatment time 0 min): +
- viable colony (CHX 300 μg/ml, treatment time 1 min): +
- viable colony (CHX 300 μg/ml, treatment time 2 min): +
- viable colony (CHX 300 μg/ml, treatment time 3 min): +
- viable colony (CHX 300 μg/ml, treatment time 5 min): +
- viable colony (CHX 300 μg/ml, treatment time 10 min): +
- viable colony (CHX 300 μg/ml, treatment time 30 min): −
- viable colony (CHX 300 μg/ml, treatment time 60 min): −
- viable colony (CHX 500 μg/ml, treatment time 0 min): +
- viable colony (CHX 500 μg/ml, treatment time 1 min): +
- viable colony (CHX 500 μg/ml, treatment time 2 min): +
- viable colony (CHX 500 μg/ml, treatment time 3 min): +
- viable colony (CHX 500 μg/ml, treatment time 5 min): +
- viable colony (CHX 500 μg/ml, treatment time 10 min): −
- viable colony (CHX 500 μg/ml, treatment time 30 min): −
- viable colony (CHX 500 μg/ml, treatment time 60 min): −
- viable colony (CHX 750 μg/ml, treatment time 0 min): +
- viable colony (CHX 750 μg/ml, treatment time 1 min): +
- viable colony (CHX 750 μg/ml, treatment time 2 min): +
- viable colony (CHX 750 μg/ml, treatment time 3 min): +
- viable colony (CHX 750 μg/ml, treatment time 5 min): +
- viable colony (CHX 750 μg/ml, treatment time 10 min): −
- viable colony (CHX 750 μg/ml, treatment time 30 min): −
- viable colony (CHX 750 μg/ml, treatment time 60 min): −
- viable colony (CHX 1000 μg/ml, treatment time 0 min): +
- viable colony (CHX 1000 μg/ml, treatment time 1 min): +
- viable colony (CHX 1000 μg/ml, treatment time 2 min): +
- viable colony (CHX 1000 μg/ml, treatment time 3 min): −
- viable colony (CHX 1000 μg/ml, treatment time 5 min): −
- viable colony (CHX 1000 μg/ml, treatment time 30 min): −
- viable colony (CHX 1000 μg/ml, treatment time 60 min): −
- viability of A.a. (CHX 75-1,000 μg/ml, two-minute treatment, stop reagent added): limited viability
